pKi: −log10 of the molar value. Entries after “also recorded” stand apart in the source; their conditions may differ. Where two headings read alike, the source gives them in different places.
Tests used:
NTCP-HEK293 cells = assay: Passive uptake in the absence of sodium
human NTCP [1] = target: T1, human NTCP (Homo sapiens, UniProt Q14973); settings: ref Dong et al., 2013, cited from earlier work
T1 sequence (Q14973 1-349): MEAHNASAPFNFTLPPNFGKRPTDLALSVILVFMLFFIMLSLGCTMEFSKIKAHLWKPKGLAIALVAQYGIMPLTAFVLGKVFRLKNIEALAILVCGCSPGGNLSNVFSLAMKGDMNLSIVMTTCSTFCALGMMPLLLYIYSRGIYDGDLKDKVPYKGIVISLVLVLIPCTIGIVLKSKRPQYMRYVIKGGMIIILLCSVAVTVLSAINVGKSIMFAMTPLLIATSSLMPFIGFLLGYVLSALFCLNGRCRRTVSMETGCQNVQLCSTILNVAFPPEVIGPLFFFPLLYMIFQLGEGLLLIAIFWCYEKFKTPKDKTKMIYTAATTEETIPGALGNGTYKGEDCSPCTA

human NTCP [2] = target: T1, human NTCP; assay: Uptake study on NTCP-HEK293 cells; format: cell-based; settings: for Normalized Jmax: Jmax of compound normalized against Jmax of taurocholate; for Kt: Michaelis-Menten constant of uptake, 5 min, 0-200 μM in HBSS; for NTCP substrate (in words): uptake in presence versus absence of sodium
human NTCP [3] = target: T1, human NTCP; assay: Inhibition of taurocholate uptake into NTCP-HEK293 cells; format: cell-based; settings: for Inhibition of NTCP taurocholate uptake (in words): NTCP-HEK293 cells, 0-200 μM
human NTCP [4] = target: T1, human NTCP; assay: Inhibition of irbesartan or losartan uptake by taurocholate in NTCP-HEK293 cells; format: cell-based; settings: substrates irbesartan or losartan

**Q.** Which results are given for `CCCCC1=NC2(CCCC2)C(=O)N1Cc1ccc(-c2ccccc2-c2nnn[nH]2)cc1` [Irbesartan]?
**A.** Pp (passive permeability) (NTCP-HEK293 cells): 6.27 ± 0.14 cm/s ×10^6; Previously identified as NTCP inhibitor (in words) (human NTCP [1]): previously identified as NTCP inhibitors; Normalized Jmax (human NTCP [2]): 0.172 ± 0.022; Kt (human NTCP [2]; NTCP-HEK293 cells): 32.7 ± 5.9 µM; Jmax (human NTCP [2]; maximal flux, NTCP-HEK293 cells): 0.430 ± 0.026 pmol/sec/cm^2; NTCP substrate (in words) (human NTCP [2]; NTCP-HEK293 cells): substrates of human NTCP; Jmax relative to taurocholate Jmax (human NTCP [2]; versus taurocholate Jmax): about 20%

**Q.** For `C[C@H](CCC(=O)NCC(=O)O)[C@H]1CC[C@H]2[C@@H]3[C@@H](O)C[C@@H]4C[C@H](O)CC[C@]4(C)[C@H]3CC[C@]12C` [GUDCA, glycoursodeoxycholate], which “Normalized Jmax” value (human NTCP [2]) is on record?
**A.** The value was 0.460 ± 0.143.

**Q.** What about the pKi (human NTCP [3]) of the same molecule?
**A.** Its pKi is 4.82.

**Q.** What about the “Inhibition of NTCP taurocholate uptake (in words)” value (human NTCP [3]) of the same molecule?
**A.** Its value is “reduced by GUDCA in a concentration-dependent manner”.

**Q.** For `CC(C)[C@H](NC(=O)CC[C@@H](C)[C@H]1CC[C@H]2[C@@H]3[C@H](O)C[C@@H]4C[C@H](O)CC[C@]4(C)[C@H]3CC[C@]12C)C(=O)O` [CDCA-L-Val-OH], which “Pp (passive permeability)” value (NTCP-HEK293 cells) is on record?
**A.** Its value is 1.47 ± 0.09 cm/s ×10^6.

**Q.** What about the “Normalized Jmax” value (human NTCP [2]) of the same molecule?
**A.** Its value is 0.330 ± 0.031.

**Q.** What about the Kt (human NTCP [2]; NTCP-HEK293 cells) of the same molecule?
**A.** The Kt was 9.62 ± 1.47 µM.

**Q.** Which “Pp (passive permeability)” value (NTCP-HEK293 cells) does the source give for `C[C@H](CCC(=O)O)[C@H]1CC[C@H]2[C@@H]3CC[C@@H]4C[C@H](O)CC[C@]4(C)[C@H]3CC[C@]12C` [LCA, lithocholate] here?
**A.** The value was 33.9 ± 3.3 cm/s ×10^6.

**Q.** What about the “NTCP substrate (in words)” value (human NTCP [2]; NTCP-HEK293 cells) of the same molecule?
**A.** Its value is “indistinguishable uptake in the presence or absence of sodium; also recorded: not an apparent substrate”.

**Q.** With `C[C@H](CCC(=O)NCCS(=O)(=O)O)[C@H]1CC[C@H]2[C@@H]3[C@H](O)C[C@@H]4C[C@H](O)CC[C@]4(C)[C@H]3CC[C@]12C` [TCDCA, taurochenodeoxycholate] as the molecule, how does the “Pp (passive permeability)” value (NTCP-HEK293 cells) read?
**A.** Its value is 4.35 ± 0.70 cm/s ×10^6.

**Q.** What about the “Normalized Jmax” value (human NTCP [2]) of the same molecule?
**A.** The value was 0.621 ± 0.058.

**Q.** And the Kt (human NTCP [2]; NTCP-HEK293 cells)?
**A.** Its Kt is 8.12 ± 1.20 µM.

**Q.** Which “Pp (passive permeability)” value (NTCP-HEK293 cells) does the source give for `CCCCc1nc(Cl)c(CO)n1Cc1ccc(-c2ccccc2-c2nn[nH]n2)cc1` [Losartan] here?
**A.** The value was 1.48 ± 0.12 cm/s ×10^6.

**Q.** What does the source list for `C[C@H](CCC(=O)NCCS(=O)(=O)O)[C@H]1CC[C@H]2[C@@H]3[C@@H](O)C[C@@H]4C[C@H](O)CC[C@]4(C)[C@H]3CC[C@]12C` [TUDCA, tauroursodeoxycholate]?
**A.** Normalized Jmax (human NTCP [2]): 0.409 ± 0.038; Kt (human NTCP [2]; NTCP-HEK293 cells): 9.53 µM

**Q.** Which “Pp (passive permeability)” value (NTCP-HEK293 cells) does the source give for `C[C@H](CCC(=O)O)[C@H]1CC[C@H]2[C@@H]3[C@@H](O)C[C@@H]4C[C@H](O)CC[C@]4(C)[C@H]3CC[C@]12C` [UDCA, ursodeoxycholate] here?
**A.** The value was 26.3 ± 1.1 cm/s ×10^6.

**Q.** What about the “Normalized Jmax” value (human NTCP [2]) of the same molecule?
**A.** Its value is 0.0511 ± 0.0093.

**Q.** And the Kt (human NTCP [2]; NTCP-HEK293 cells)?
**A.** The Kt was 1.55 µM.

**Q.** And the “NTCP substrate (in words)” value (human NTCP [2]; NTCP-HEK293 cells)?
**A.** Its value is “substrates”.

**Q.** What about the “Normalized Jmax, fold lower than that for taurocholate” value (human NTCP [2]; versus taurocholate) of the same molecule?
**A.** The value was 14 fold.

**Q.** For `C[C@H](CCC(=O)O)[C@H]1CC[C@H]2[C@@H]3[C@H](O)C[C@@H]4C[C@H](O)CC[C@]4(C)[C@H]3CC[C@]12C` [CDCA, chenodeoxycholate], which “Pp (passive permeability)” value (NTCP-HEK293 cells) is on record?
**A.** Its value is 27.6 ± 1.5 cm/s ×10^6.

**Q.** What about the “NTCP substrate (in words)” value (human NTCP [2]; NTCP-HEK293 cells) of the same molecule?
**A.** The value was “indistinguishable uptake in the presence or absence of sodium; also recorded: no NTCP uptake”.

**Q.** What does the source list for `O=C1[C@H](CC[C@H](O)c2ccc(F)cc2)[C@@H](c2ccc(O)cc2)N1c1ccc(F)cc1` [Ezetimibe]?
**A.** Previously identified as NTCP inhibitor (in words) (human NTCP [1]): previously identified as NTCP inhibitors; NTCP substrate (in words) (human NTCP [2]; NTCP-HEK293 cells): not to be NTCP substrates

**Q.** Which “Pp (passive permeability)” value (NTCP-HEK293 cells) does the source give for `C[C@H](CCC(=O)O)[C@H]1CC[C@H]2[C@@H]3[C@H](O)C[C@@H]4C[C@H](O)CC[C@]4(C)[C@H]3C[C@H](O)[C@]12C` [CA, cholate] here?
**A.** The value was 4.56 ± 0.06 cm/s ×10^6.

**Q.** What about the “Normalized Jmax” value (human NTCP [2]) of the same molecule?
**A.** The value was 0.523 ± 0.081.

**Q.** What about the Kt (human NTCP [2]; NTCP-HEK293 cells) of the same molecule?
**A.** Its Kt is 54.9 µM.

**Q.** What about the “NTCP substrate (in words)” value (human NTCP [2]; NTCP-HEK293 cells) of the same molecule?
**A.** Its value is “substrates”.

**Q.** With `CC(C)c1nc(N(C)S(C)(=O)=O)nc(-c2ccc(F)cc2)c1/C=C/[C@@H](O)C[C@@H](O)CC(=O)O` [Rosuvastatin] as the molecule, how does the “Pp (passive permeability)” value (NTCP-HEK293 cells) read?
**A.** The value was 0.330 ± 0.006 cm/s ×10^6.

**Q.** Which “Pp (passive permeability)” value (NTCP-HEK293 cells) does the source give for `C[C@H](CCC(=O)NCC(=O)O)[C@H]1CC[C@H]2[C@@H]3CC[C@@H]4C[C@H](O)CC[C@]4(C)[C@H]3CC[C@]12C` [GLCA, glycolithocholate] here?
**A.** Its value is 6.67 ± 0.95 cm/s ×10^6.

**Q.** And the “Normalized Jmax” value (human NTCP [2])?
**A.** Its value is 0.384 ± 0.070.

**Q.** And the Kt (human NTCP [2]; NTCP-HEK293 cells)?
**A.** The Kt was 4.87 ± 3.49 µM.

**Q.** What about the pKi (human NTCP [3]) of the same molecule?
**A.** The pKi was about 5.30.

**Q.** What about the pKi (human NTCP [3]; listed as Lithocholate Glycine) of the same molecule?
**A.** The pKi was 5.14.

**Q.** With `CC(C)OC(=O)C(C)(C)Oc1ccc(C(=O)c2ccc(Cl)cc2)cc1` [Fenofibrate] as the molecule, how does the “Previously identified as NTCP inhibitor (in words)” value (human NTCP [1]) read?
**A.** The value was “previously observed them to be inhibitors”.

**Q.** What about the “NTCP substrate (in words)” value (human NTCP [2]; NTCP-HEK293 cells) of the same molecule?
**A.** Its value is “not to be NTCP substrates”.

**Q.** What does the source list for `C[C@H](CCC(=O)NCC(=O)O)[C@H]1CC[C@H]2[C@@H]3[C@H](O)C[C@@H]4C[C@H](O)CC[C@]4(C)[C@H]3C[C@H](O)[C@]12C` [GCA, glycocholate]?
**A.** Normalized Jmax (human NTCP [2]): 0.508 ± 0.041; Kt (human NTCP [2]; NTCP-HEK293 cells): 15.8 ± 2.7 µM

**Q.** For `C[C@H](CCC(=O)NCC(=O)O)[C@H]1CC[C@H]2[C@@H]3[C@H](O)C[C@@H]4C[C@H](O)CC[C@]4(C)[C@H]3CC[C@]12C` [GCDCA, glycochenodeoxycholate], which “Pp (passive permeability)” value (NTCP-HEK293 cells) is on record?
**A.** Its value is 2.17 ± 0.32 cm/s ×10^6.

**Q.** And the “Normalized Jmax” value (human NTCP [2])?
**A.** Its value is 0.726 ± 0.091.

**Q.** What about the Kt (human NTCP [2]; NTCP-HEK293 cells) of the same molecule?
**A.** Its Kt is 10.9 ± 1.8 µM.

**Q.** Which “Inhibition of NTCP taurocholate uptake (in words)” value (human NTCP [3]) does the source give for `C[C@H](CCC(=O)O)[C@H]1CC[C@H]2[C@@H]3C(=O)C[C@@H]4CC(=O)CC[C@]4(C)[C@H]3CC(=O)[C@]12C` [DHCA, dehydrocholate] here?
**A.** Its value is “not an inhibitor of NTCP”.

**Q.** With `C[C@H](CCC(=O)NCCS(=O)(=O)O)[C@H]1CC[C@H]2[C@@H]3CC[C@@H]4C[C@H](O)CC[C@]4(C)[C@H]3CC[C@]12C` [TLCA, taurolithocholate] as the molecule, how does the “Pp (passive permeability)” value (NTCP-HEK293 cells) read?
**A.** Its value is 3.37 ± 0.63 cm/s ×10^6.

**Q.** And the “Normalized Jmax” value (human NTCP [2])?
**A.** Its value is 0.495 ± 0.053.

**Q.** And the Kt (human NTCP [2]; NTCP-HEK293 cells)?
**A.** Its Kt is 6.50 ± 1.87 µM.

**Q.** Which results are given for `C[C@H](CCC(=O)N[C@@H](CCC(=O)OCc1ccccc1)C(=O)O)[C@H]1CC[C@H]2[C@@H]3[C@H](O)C[C@@H]4C[C@H](O)CC[C@]4(C)[C@H]3CC[C@]12C` [CDCA-L-Glu-γ-Benzyl Ester]?
**A.** Pp (passive permeability) (NTCP-HEK293 cells): 7.70 ± 0.23 cm/s ×10^6; Normalized Jmax (human NTCP [2]): 0.233 ± 0.036; Kt (human NTCP [2]; NTCP-HEK293 cells): 11.7 ± 4.3 µM

**Q.** For `C[C@H](CCC(=O)NCCS(=O)(=O)O)[C@H]1CC[C@H]2[C@@H]3[C@H](O)C[C@@H]4C[C@H](O)CC[C@]4(C)[C@H]3C[C@H](O)[C@]12C` [TCA, taurocholate], which “Inhibition of irbesartan and losartan uptake (in words)” value (human NTCP [4]) is on record?
**A.** Its value is “inhibited irbesartan and losartan uptake in a concentration dependent fashion”.

**Q.** What about the “Kt (NTCP taurocholate Michaelis-Menten constant)” value (human NTCP [1]; used in Equation 1) of the same molecule?
**A.** The value was 22.7(+3.4) μM.

**Q.** What about the “Normalized Jmax” value (human NTCP [2]) of the same molecule?
**A.** The value was 0.708 ± 0.057.

**Q.** What about the Kt (human NTCP [2]; NTCP-HEK293 cells) of the same molecule?
**A.** Its Kt is 19.8 ± 2.5 µM.
